Columns and labels:
Type in all cases: cell-based, human
MALME-3M = experiment: NCI in vitro anti-tumor screening, 1 μM, SRB; settings: c = 1 μM; MALME-3M (Melanoma); two days
SK-MEL-2 = experiment: NCI in vitro anti-tumor screening, 1 μM, SRB; settings: c = 1 μM; SK-MEL-2 (Melanoma); two days
MDA-MB-468 = experiment: NCI in vitro anti-tumor screening, 1 μM, SRB; settings: c = 1 μM; MDA-MB-468 (Breast cancer); two days
MCF7 = experiment: NCI in vitro anti-tumor screening, 1 μM, SRB; settings: c = 1 μM; MCF7 (Breast cancer); two days
LOX IMVI = experiment: NCI in vitro anti-tumor screening, 1 μM, SRB; settings: c = 1 μM; LOX IMVI (Melanoma); two days
UACC-257 = experiment: NCI in vitro anti-tumor screening, 1 μM, SRB; settings: c = 1 μM; UACC-257 (Melanoma); two days
Melanoma cell lines = experiment: NCI in vitro anti-tumor screening, 1 μM, mean of melanoma lines; settings: c = 1 μM
T-47D = experiment: NCI in vitro anti-tumor screening, 1 μM, SRB; settings: c = 1 μM; T-47D (Breast cancer); two days
Leukemia cell lines = experiment: NCI in vitro anti-tumor screening, 1 μM, mean of leukemia lines; settings: c = 1 μM
Breast cancer cell lines = experiment: NCI in vitro anti-tumor screening, 1 μM, mean of breast cancer lines; settings: c = 1 μM
HL-60(TB) = experiment: NCI in vitro anti-tumor screening, 1 μM, SRB; settings: c = 1 μM; HL-60(TB) (Leukemia); two days
BT-549 = experiment: NCI in vitro anti-tumor screening, 1 μM, SRB; settings: c = 1 μM; BT-549 (Breast cancer); two days
MDA-MB-435 = experiment: NCI in vitro anti-tumor screening, 1 μM, SRB; settings: c = 1 μM; MDA-MB-435 (Melanoma); two days
M14 = experiment: NCI in vitro anti-tumor screening, 1 μM, SRB; settings: c = 1 μM; M14 (Melanoma); two days
RPMI-8226 = experiment: NCI in vitro anti-tumor screening, 1 μM, SRB; settings: c = 1 μM; RPMI-8226 (Leukemia); two days
60 tumor cell lines [1] = experiment: NCI in vitro anti-tumor screening, 1 μM, all 60 cell lines; settings: c = 1 μM; for growth inhibitory effect (in words): leukemia, melanoma, breast cancer lines of Tables I and II
MDA-MB-231/ATCC = experiment: NCI in vitro anti-tumor screening, 1 μM, SRB; settings: c = 1 μM; MDA-MB-231/ATCC (Breast cancer); two days
SK-MEL-28 = experiment: NCI in vitro anti-tumor screening, 1 μM, SRB; settings: c = 1 μM; SK-MEL-28 (Melanoma); two days
MOLT-4 = experiment: NCI in vitro anti-tumor screening, 1 μM, SRB; settings: c = 1 μM; MOLT-4 (Leukemia); two days
K-562 = experiment: NCI in vitro anti-tumor screening, 1 μM, SRB; settings: c = 1 μM; K-562 (Leukemia); two days
SK-MEL-5 = experiment: NCI in vitro anti-tumor screening, 1 μM, SRB; settings: c = 1 μM; SK-MEL-5 (Melanoma); two days
UACC-62 = experiment: NCI in vitro anti-tumor screening, 1 μM, SRB; settings: c = 1 μM; UACC-62 (Melanoma); two days
SR = experiment: NCI in vitro anti-tumor screening, 1 μM, SRB; settings: c = 1 μM; SR (Leukemia); two days
CCRF-CEM = experiment: NCI in vitro anti-tumor screening, 1 μM, SRB; settings: c = 1 μM; CCRF-CEM (Leukemia); two days
HS-578T = experiment: NCI in vitro anti-tumor screening, 1 μM, SRB; settings: c = 1 μM; HS-578T (Breast cancer); two days
60 tumor cell lines [2] = experiment: NCI 5 dose assay, dose-response (GI50, MG_MID); settings: for GI50: Homo sapiens, calculated from mean graph midpoint; for GI50 / MG_MID (mean-graph midpoint, mean of the logarithms GI50 values): all 60 cell lines; for MG_MID (mean-graph midpoint, mean of the logarithms GI50 values): 5 concentrations
From the text: It has been shown in the experiments carried out according to the present invention that the above-described phenanthroline derivates have antitumoral properties. Due to their structural similarity it is to be assumed that they have also antimicrobial, antifungal, antiviral and anti-inflammatory properties like the benzo[c]phenanthridines. For investigating the pharmacological properties the compounds of general formulas I and II, as well as compounds of the substance class III were investigated in an “in vitro anti-tumor screening” of the National Cancer Institute (NCI), Bethesda, Md., USA. 60 different human pathogenic tumor cell lines were tested, which originate from nine cancer types (leukemia, non-small cell lung carcinoma, colon cancer, CNS cancer, melanoma, ovarian cancer, renal cancer, prostate cancer, breast cancer). For determining the efficacy, the tumor cells are exposed to the compounds for two days and thereafter the growth inhibition is indirectly determined through the determination of the protein biomass with sulforhodamine B (SRB). Untreated cultures serve as reference.
Furthermore, it can be seen from tables I and II that the here tested phenanthrolin derivatives according to the present invention have selectivities for certain tumor types. The most marked growth inhibitory effect is for tumor cells of leukemia. Furthermore, a degree of selectivity for tumor cells of melanoma and mamma carcinoma (breast cancer) can be seen. […] The GI50 (growth inhibition 50%) describes here the concentration of the test substance required for inhibiting cell growth by 50%. […] Develop. Res., 34, (1995) 91-109,]
Exemplary for 6-amino-11-(3-bromophenyl)-11,12-dihydropyrido[3,4-c][1,9] phenanthrol are the dose-response curves shown in FIGS. 1 to 9. The nine different Figures include the various types of cancer. The percentage of growth, depending on the concentration of the compound is plotted (as log10 of the molar concentrations). The individual curves for each type of cancer are different cell lines of this type of cancer, which appear as legends in their usual abbreviations. Horizontal lines in the Figures denote percent growth +100, +50, 0, −50, −100. 100% growth means e.g. no difference to growth after two days without added substance.

## Nc1nc2c(c3ccncc13)C(c1ccc(Br)cc1)Cc1ccncc1-2 (centres unmarked)
MALME-3M
  Percentage cell growth: 98.2%
SK-MEL-2
  Percentage cell growth: 94.1%
MDA-MB-468
  Percentage cell growth: 87.6%
MCF7
  Percentage cell growth: 83.4%
LOX IMVI
  Percentage cell growth: 95.7%
UACC-257
  Percentage cell growth: 107.8%
Melanoma cell lines
  Percentage cell growth, Arithmetic mean: 97.4%
T-47D
  Percentage cell growth: 84.6%
Leukemia cell lines
  Percentage cell growth, Arithmetic mean: 73.8%
Breast cancer cell lines
  Percentage cell growth, Arithmetic mean: 80.8%
HL-60(TB)
  Percentage cell growth: 70.3%
BT-549
  Percentage cell growth: 67.8%
MDA-MB-435
  Percentage cell growth: 107%
M14
  Percentage cell growth: 93.4%
RPMI-8226
  Percentage cell growth: 64.7%
60 tumor cell lines [1]
  Percentage cell growth, Arithmetic mean of all 60 cell lines: 90.5%
MDA-MB-231/ATCC
  Percentage cell growth: 80.6%
SK-MEL-28
  Percentage cell growth: 112.5%
MOLT-4
  Percentage cell growth: 75.3%
K-562
  Percentage cell growth: 84.9%
SK-MEL-5
  Percentage cell growth: 86.2%
UACC-62
  Percentage cell growth: 81.7%

## COc1cccc(-c2cc3ccncc3c3nc(N)c4cnccc4c23)c1OC
MALME-3M
  Percentage cell growth: 123.8%
SR
  Percentage cell growth: 83.5%
SK-MEL-2
  Percentage cell growth: 117.3%
MDA-MB-468
  Percentage cell growth: 81.5%
MCF7
  Percentage cell growth: 89.9%
LOX IMVI
  Percentage cell growth: 89.3%
UACC-257
  Percentage cell growth: 126.3%
CCRF-CEM
  Percentage cell growth: 74.9%
HS-578T
  Percentage cell growth: 90.5%
Melanoma cell lines
  Percentage cell growth, Arithmetic mean: 95.2%
T-47D
  Percentage cell growth: 97.4%
Leukemia cell lines
  Percentage cell growth, Arithmetic mean: 92.1%
Breast cancer cell lines
  Percentage cell growth, Arithmetic mean: 90.9%
HL-60(TB)
  Percentage cell growth: 118.7%
BT-549
  Percentage cell growth: 95.0%
M14
  Percentage cell growth: 94.8%
RPMI-8226
  Percentage cell growth: 96.8%
60 tumor cell lines [1]
  Percentage cell growth, Arithmetic mean of all 60 cell lines: 98.0%
  growth inhibitory effect (in words): disadvantageous
MDA-MB-231/ATCC
  Percentage cell growth: 90.8%
SK-MEL-28
  Percentage cell growth: 119.5%
MOLT-4
  Percentage cell growth: 90.1%
K-562
  Percentage cell growth: 88.8%
SK-MEL-5
  Percentage cell growth: 86.3%
UACC-62
  Percentage cell growth: 99.1%

## COc1cc(-c2cc3ccncc3c3nc(N)c4cnccc4c23)cc(OC)c1OC
MALME-3M
  Percentage cell growth: 35.5%
SR
  Percentage cell growth: 13.1%
SK-MEL-2
  Percentage cell growth: 65.3%
MDA-MB-468
  Percentage cell growth: −23.6%
MCF7
  Percentage cell growth: 22.8%
LOX IMVI
  Percentage cell growth: −30.4%
UACC-257
  Percentage cell growth: 30.9%
CCRF-CEM
  Percentage cell growth: 7.2%
HS-578T
  Percentage cell growth: −2.5%
Melanoma cell lines
  Percentage cell growth, Arithmetic mean: 22.1%
T-47D
  Percentage cell growth: 36%
Leukemia cell lines
  Percentage cell growth, Arithmetic mean: 12.3%
Breast cancer cell lines
  Percentage cell growth, Arithmetic mean: 8.2%
HL-60(TB)
  Percentage cell growth: −0.9%
BT-549
  Percentage cell growth: 8.31%
M14
  Percentage cell growth: 9.5%
RPMI-8226
  Percentage cell growth: 33.5%
60 tumor cell lines [1]
  Percentage cell growth, Arithmetic mean of all 60 cell lines: 16.8%
  growth inhibitory effect (in words): best results
SK-MEL-28
  Percentage cell growth: 41.5%
MOLT-4
  Percentage cell growth: −8.9%
K-562
  Percentage cell growth: 29.9%
SK-MEL-5
  Percentage cell growth: 2.2%

## Nc1nc2c3cnccc3cc(-c3ccco3)c2c2ccncc12
MALME-3M
  Percentage cell growth: 59.7%
SR
  Percentage cell growth: 7.8%
SK-MEL-2
  Percentage cell growth: 91.8%
MDA-MB-468
  Percentage cell growth: 35.6%
MCF7
  Percentage cell growth: 25.0%
LOX IMVI
  Percentage cell growth: 2.3%
UACC-257
  Percentage cell growth: 69.8%
CCRF-CEM
  Percentage cell growth: 12.4%
Melanoma cell lines
  Percentage cell growth, Arithmetic mean: 45.5%
T-47D
  Percentage cell growth: 48.4%
Leukemia cell lines
  Percentage cell growth, Arithmetic mean: 24.6%
Breast cancer cell lines
  Percentage cell growth, Arithmetic mean: 40.0%
HL-60(TB)
  Percentage cell growth: 13.9%
BT-549
  Percentage cell growth: 16.2%
M14
  Percentage cell growth: 37.0%
RPMI-8226
  Percentage cell growth: 62.7%
60 tumor cell lines [1]
  Percentage cell growth, Arithmetic mean of all 60 cell lines: 39.1%
  growth inhibitory effect (in words): good cytotoxic effects
MDA-MB-231/ATCC
  Percentage cell growth: 74.9%
SK-MEL-28
  Percentage cell growth: 42.4%
MOLT-4
  Percentage cell growth: −0.9%
K-562
  Percentage cell growth: 51.6%
SK-MEL-5
  Percentage cell growth: 20.0%
UACC-62
  Percentage cell growth: 41.0%

## COc1cc2c(ccc3c4cc(OC)c(OC)cc4c[n+](C)c23)cc1O [Fagaronine, reference compound]
60 tumor cell lines [2]
  GI50: 9.48 µM
  MG_MID (mean-graph midpoint, mean of the logarithms GI50 values): −5.00

## Nc1cc2c(c3cnccc13)NCc1cnccc1-2 [P4, 6-amino-11,12-dihydropyrido[3,4-c][1,9]phenanthroline]
60 tumor cell lines [2]
  GI50: 8.13 µM
  MG_MID (mean-graph midpoint, mean of the logarithms GI50 values): −5.09

## Nc1cc2c(c3cnccc13)N(c1cccc(Br)c1)Cc1cnccc1-2 [P5, 6-amino-11-(3-bromophenyl)-11,12-dihydro-pyrido-[3,4-c][1,9]phenanthroline]
60 tumor cell lines [2]
  GI50: 2.69 µM
  MG_MID (mean-graph midpoint, mean of the logarithms GI50 values): −5.57
60 tumor cell lines [2]; nine cancer types, 5 dose assay
  percent growth versus concentration (dose-response curves, FIGS. 1 to 9): with increasing concentrations of the substance, the percent growth decreases

## O=C1CC2=C(c3cnccc31)N(c1cccc(Br)c1)Cc1cnccc12 [P5-O, 11-(3-bromophenyl)-6-oxo-5,6,11,12-tetrahydropyrido[3,4-c][1,9]phenanthroline]
60 tumor cell lines [2]
  GI50: 8.51 µM
  MG_MID (mean-graph midpoint, mean of the logarithms GI50 values): −5.07

## Nc1cc2c(c3cnccc13)N(c1cccc(Cl)c1)Cc1cnccc1-2 [P16, 6-amino-11-(3-chlorophenyl)-11,12 dihydropyrido-[3,4-c][1,9]phenanthroline]
60 tumor cell lines [2]
  GI50: 3.8 µM
  MG_MID (mean-graph midpoint, mean of the logarithms GI50 values): −5.42

## Nc1cc2c(c3cnccc13)N(c1ccc(Cl)c(Cl)c1)Cc1cnccc1-2 [P26, 6-amino-11-(3,4-di-chlorophenyl)-11,12-dihydropyrido-[3,4-c][1,9]phenanthroline]
60 tumor cell lines [2]
  GI50: 6.02 µM
  MG_MID (mean-graph midpoint, mean of the logarithms GI50 values): −5.22

— patent US20150099774A1, “Pyrido [3,4-C] [1,9] phenanthroline and 11, 12 dihydropyrido [3,4-C] [1,9] phenanthroline derivatives and the use thereof, particularly for treating cancer” (CHRISTIAN-ALBRECHTS-UNIVERSITAET ZU KIEL, priority 2012, published 2015)
